Measured values: US11518763B2 (SCOHIA PHARMA, INC., priority 2018, dated 2022)

Biological target: T1, binding between NRF2 and KEAP1 (biotinylated human KEAP1 protein (Kelch domain), TAMRA-labeled NRF2 peptide) (Homo sapiens, UniProt Q14145)
T1 construct: biotinylated human KEAP1 protein (Kelch domain); biotin (biotinylated)
Test: Measurement of activity of inhibiting NRF2 binding (NRF2-KEAP1 TR-FRET)
Details: inhibition rate relative to control at 100 nM test compound, TR-FRET, 60 min at room temperature; for inhibition at 0.1 µM: read-out: NRF2 binding inhibitory activity (at 100 nM); for NRF2 binding inhibitory activity (at 100 nM): 0.1 µM
Experimental: Test Example 1: Measurement of Activity of Inhibiting NRF2 Binding
The inhibitory activity of test compounds against the binding between NRF2 and KEAP1 was measured by Time Resolved Fluorescence Resonance Energy Transfer (TR-FRET) method. Into a 384 well plate, 2 μL of a compound, 2 μL of 2 nM solution of biotinylated human KEAP1 protein (Kelch domain), 2 μL of 14 nM solution of TAMRA-labeled NRF2 peptide (TAMRA-Abu(4)-VWYTDIRMRDWM-OH), and 2 μL of 2 nM solution of Tb-labeled streptavidin, all solutions diluted with assay buffer (25 mM HEPES, pH7.5, 150 mM NaCl, 0.01% Tween-20), were added. For some wells, the KEAP1 protein was not added to define control wells. The plate was incubated at room temperature for 60 minutes, and time-resolved fluorescence was measured with a plate reader Envision (manufactured by PerkinElmer). The inhibitory activity for each compound at a compound concentration of 100 nM were calculated as a relative activity value by setting the fluorescence intensity of control wells to which the KEAP1 protein was not added as 100% inhibition, and the fluorescence intensity of wells to which no compound was added as 0%.
The measurement results according to the method described above (inhibition rate of signal value relative to control at 100 nM of test compound) are shown in Table 3.

T1 sequence (Q14145 321-609 limits assumed): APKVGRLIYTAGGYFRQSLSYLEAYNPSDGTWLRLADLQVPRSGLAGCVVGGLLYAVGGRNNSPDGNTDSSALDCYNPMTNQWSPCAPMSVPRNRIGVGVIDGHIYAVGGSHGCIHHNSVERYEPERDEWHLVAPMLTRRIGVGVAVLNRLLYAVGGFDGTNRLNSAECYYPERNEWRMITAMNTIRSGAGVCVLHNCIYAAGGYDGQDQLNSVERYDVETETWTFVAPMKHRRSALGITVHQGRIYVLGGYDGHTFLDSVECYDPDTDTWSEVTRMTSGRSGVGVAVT

Row | inhibition at 0.1 µM | NRF2 binding inhibitory activity (at 100 nM) | SMILES
1 | 100% | – | Cc1c2ccc3c1nnn3CCCCCc1ccc(c3c1CC(C)(C)O3)C(=O)N1CCc3ccc(cc3C1)C2CC(=O)O (racemic) [Example 8, [6,6,33-Trimethyl-2-oxo-5-oxa-1,15,16,17-tetraazaheptacyclo[22.5.3.2^3,9.1^18,22.0^4,8.0^15,19.0^27,31]pentatriaconta-3,8,16,18(33),19,21,24,26,31,34-decaen-23-yl]acetic acid]
2 | 99% | – | Cc1c2ccc3c1nnn3CCCCc1ccc(cc1)C(=O)N1CCc3ccc(cc3C1)C2CC(=O)O (racemic) [Example 13, [31-Methyl-19-oxo-8,9,10,20-tetraazahexacyclo[18.5.3.2^15,18.1^3,7.0^6,10.0^23,27]hentriaconta-1(25),3(31),4,6,8,15,17,23,26,29-decaen-2-yl]acetic acid]
3 | 100% | – | COc1cc2ccc1C(=O)N1CCc3ccc(cc3C1)C(CC(=O)O)c1ccc3c(nnn3CCCOC2)c1C (racemic) [Example 22, [18-Methoxy-32-methyl-20-oxo-14-oxa-8,9,10,21-tetraazahexacyclo[19.5.3.2^16,19.1^3,7.0^6,10.0^24,28]dotriaconta-1(26),3(32),4,6,8,16,18,24,27,30-decaen-2-yl]acetic acid]
4 | 100% | – | Cc1cc2ccc1C(=O)N1CCc3ccc(cc3C1)C(CC(=O)O)c1ccc3c(nnn3CCCOC2)c1C (racemic) [Example 17, [18,32-Dimethyl-20-oxo-14-oxa-8,9,10,21-tetraazahexacyclo[19.5.3.2^16,19.1^3,7.0^6,10.0^24,28]dotriaconta-1(26),3(32),4,6,8,16,18,24,27,30-decaen-2-yl]acetic acid]
5 | 100% | – | Cc1c2ccc3c1nnn3CCCCCc1ccc(cc1)C(=O)N1CCc3ccc(cc3C1)C2CC(=O)O (racemic) [Example 1, [32-Methyl-20-oxo-8,9,10,21-tetraazahexacyclo[19.5.3.2^16,19.1^3,7.0^6,10.0^24,28]dotriaconta-1(26),3(32),4,6,8,16,18,24,27,30-decaen-2-yl]acetic acid]
6 | 99% | – | Cc1cc2cc(C)c1C(=O)N1CCc3ccc(cc3C1)C(CC(=O)O)c1ccc3c(nnn3CCCOC2)c1C (stereo not drawn) [Example 67, [18,30,32-trimethyl-20-oxo-14-oxa-8,9,10,21-tetrazahexacyclo[19.5.3.2^16,19.1^3,7.0^6,10.0^24,28]dotriaconta-1(27),3(32),4,6,8,16,18,24(28),25,30-decaen-2-yl]acetic acid]
7 | – | 93% | Cc1cc2cc(C)c1C(=O)N1CCc3ccc(cc3C1)C(CC(=O)O)c1ccc3c(nnn3CCCOC2)c1C (stereo not drawn) [Example 68, [18,30,32-trimethyl-20-oxo-14-oxa-8,9,10,21-tetrazahexacyclo[19.5.3.2^16,19.1^3,7.0^6,10.0^24,28]dotriaconta-1(27),3(32),4,6,8,16,18,24(28),25,30-decaen-2-yl]acetic acid]
8 | 100% | – | Cc1c2ccc3c1nnn3CCCCOc1ccc(c(F)c1)C(=O)N1CCc3ccc(cc3C1)C2CC(=O)O (racemic) [Example 31, [18-Fluoro-32-methyl-20-oxo-15-oxa-8,9,10,21-tetraazahexacyclo[19.5.3.2^16,19.1^3,7.0^6,10.0^24,28]dotriaconta-1(26),3(32),4,6,8,16,18,24,27,30-decaen-2-yl]acetic acid]

The remaining lines, values behind:

Row | SMILES | inhibition at 0.1 µM | NRF2 binding inhibitory activity (at 100 nM)
9 | Cc1c2ccc3c1nnn3CCCCCc1ccc(cc1)C(=O)N1CCc3ccc(cc3C1)C2C(C)C(=O)O (stereo not drawn) [Example 6, 2-[32-Methyl-20-oxo-8,9,10,21-tetraazahexacyclo[19.5.3.2^16,19.1^3,7.0^6,10.0^24,28]dotriaconta-1(26),3(32),4,6,8,16,18,24,27,30-decaen-2-yl]propanoic acid] | 100% | –
10 | Cc1oc(=O)oc1COC(=O)CC1c2ccc3c(c2)CN(CC3)C(=O)c2ccc(cc2)CCCCCn2nnc3c(C)c1ccc32 (stereo not drawn) [Example 35, (5-Methyl-2-oxo-2H-1,3-dioxol-4-yl)methyl [32-methyl-20-oxo-8,9,10,21-tetraazahexacyclo[19.5.3.2^16,19.1^3,7.0^6,10.0^24,28]dotriaconta-1(26),3(32),4,6,8,16,18,24,27,30-decaen-2-yl]acetate] | 99% | –
11 | CCOC(=O)CC1c2ccc3c(c2)CN(CC3)C(=O)c2ccc(cc2)COCCCn2nnc3c(C)c1ccc32 (racemic) [Example 27, Ethyl [32-methyl-20-oxo-14-oxa-8,9,10,21-tetraazahexacyclo[19.5.3.2^16,19.1^3,7.0^6,10.0^24,28]dotriaconta-1(26),3(32),4,6,8,16,18,24,27,30-decaen-2-yl]acetate] | 6% | –
12 | Cc1c2ccc3c1nnn3CCCCCc1cc(Cl)c(c(Cl)c1)C(=O)N1CCc3ccc(cc3C1)C2CC(=O)O (racemic) [Example 64, [2-[18,30-dichloro-32-methyl-20-oxo-8,9,10,21-tetrazahexacyclo[19.5.3.2^16,19.1^3,7.0^6,10.0^24,28]dotriaconta-1(27),3(32),4,6,8,16(31),17,19(30),24(28),25-decaen-2-yl]acetyl]oxysodium] | 100% | –
13 | Cc1ccc(NC(=O)CC2c3ccc4c(c3)CN(CC4)C(=O)c3ccc(cc3)COCCCn3nnc4c(C)c2ccc43)cn1 (stereo not drawn) [Example 42] | 60% | –
14 | Cc1c2ccc3c1nnn3CCCOCc1ccc(cc1)C(=O)N1CCc3ccc(cc3C1)C2C(C)(C)C(=O)O (racemic) [Example 28, 2-Methyl-2-[32-methyl-20-oxo-14-oxa-8,9,10,21-tetraazahexacyclo[19.5.3.2^16,19.1^3,7.0^6,10.0^24,28]dotriaconta-(26),3(32),4,6,8,16,18,24,27,30-decaen-2-yl]propanoic acid] | 100% | –
15 | Cc1c2ccc3c1nnn3CCCCCc1ccc(cc1)C(=O)N1CCc3ccc(cc3C1)C2C(C)(C)C(=O)O (stereo not drawn) [Example 63, 2-methyl-2-[32-methyl-20-oxo-8,9,10,21-tetrazahexacyclo [19.5.3.2^16,19.1^3,7.0^6,10.0^24,28]dotriaconta-1(27),3(32),4,6,8,16(31),17,19(30),24(28),25-decaen-2-yl]propanoic acid] | – | 46%
16 | Cc1c2ccc3c1nnn3CCCCCc1cc(Cl)c(c(Cl)c1)C(=O)N1CCc3ccc(cc3C1)C2C(C)(C)C(=O)O (racemic) [Example 57, 2-[18,30-dichloro-32-methyl-20-oxo-8,9,10,21-tetrazahexacyclo[19.5.3.2^16,19.1^3,7.0^6,10.0^24,28]dotriaconta-1(26),3(32),4,6,8,16,18,24,27,30-decaen-2-yl]-2-methylpropanoic acid] | 100% | –
17 | Cc1oc(=O)oc1COC(=O)CC1c2ccc3c(c2)CN(CC3)C(=O)c2ccc(cc2)COCCCn2nnc3c(C)c1ccc32 (stereo not drawn) [Example 34, (5-Methyl-2-oxo-2H-1,3-dioxol-4-yl)methyl [32-methyl-20-oxo-14-oxa-8,9,10,21-tetraazahexacyclo[19.5.3.2^16,19.1^3,7.0^6,10.0^24,28]dotriaconta-1(26),3(32),4,6,8,16,18,24,27,30-decaen-2-yl]acetate] | 99% | –
18 | Cc1ccc(NC(=O)CC2c3ccc4c(c3)CN(CC4)C(=O)c3ccc(cc3)CCCCCn3nnc4c(C)c2ccc43)cn1 (stereo not drawn) [Example 38, 2-[32-Methyl-20-oxo-8,9,10,21-tetraazahexacyclo[19.5.3.2^16,19.1^3,7.0^6,10.0^24,28]dotriaconta-1(26),3(32),4,6,8,16,18,24,27,30-decaen-2-yl]-N-(6-methylpyridin-3-yl)acetamide] | 79% | –
